pEC50, pIC50: −log10 of the molar value.
Columns and labels:
[1] = target: T1, DDB1DB/DCAF15 and RBM39 R1R2 complex (Homo sapiens, UniProt Q14498+Q66K64); experiment: DCAF15 RBM39 Complex Formation Assay (FRET); type: binding; details: FRET ratio Em 665/Em 615, incubated overnight at 4° C.
T1 construct: Amino acids 150 to 331 of RBM39 were cloned into pGEX4T3; GST (from vector pGEX4T3); TEV cleavage site (N); made in house; host or cells: DDB1DB/His-DCAF15: baculovirus/Sf9 co-expression; RBM39 R1R2: E. coli (pGEX4T3)
Summary of the method: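 Ternary complex formation read by TR-FRET (Em 665/615, excitation 340 nm) after overnight incubation at 4° C of 20 nM baculovirus DDB1DB/His-DCAF15 and 50 nM E. coli RBM39 RRM1-RRM2 FLAG fragment with 14-point, 3-fold compound dilutions from 1 μM; EC50 from 4-parameter fit.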

[2] = test system: HCT116 human colorectal carcinoma cells; experiment: CellTiter-Glo Luminescent Cell Viability Assay; type: cell-based; details: HCT-116, 72 h, 3 days
Summary of the method: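 CellTiter-Glo luminescence gave viability after 3 days of compound exposure in HCT116 cells grown in DMEM/10% FBS. Final concentrations ran from 5 to 0.0002 […] in 1:3 steps, each in triplicate, with IC50 derived from the curves.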

T1 sequence (Q66K64 whole entry, the tested form may be a part): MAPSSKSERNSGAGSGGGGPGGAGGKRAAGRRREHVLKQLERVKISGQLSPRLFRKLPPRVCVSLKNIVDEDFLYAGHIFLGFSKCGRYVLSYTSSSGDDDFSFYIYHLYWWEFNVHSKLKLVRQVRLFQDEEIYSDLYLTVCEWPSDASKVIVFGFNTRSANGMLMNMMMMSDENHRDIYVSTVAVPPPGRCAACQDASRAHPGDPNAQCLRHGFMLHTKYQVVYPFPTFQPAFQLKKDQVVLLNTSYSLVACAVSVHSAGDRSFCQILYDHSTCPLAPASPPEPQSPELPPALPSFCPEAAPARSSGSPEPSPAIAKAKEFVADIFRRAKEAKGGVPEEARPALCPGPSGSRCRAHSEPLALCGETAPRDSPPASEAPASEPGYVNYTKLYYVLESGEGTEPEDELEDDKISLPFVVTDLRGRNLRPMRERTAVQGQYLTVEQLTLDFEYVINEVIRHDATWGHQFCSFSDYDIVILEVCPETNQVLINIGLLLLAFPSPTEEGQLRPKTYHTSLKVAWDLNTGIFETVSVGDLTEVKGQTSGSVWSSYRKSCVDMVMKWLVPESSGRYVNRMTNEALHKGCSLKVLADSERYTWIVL
T1 sequence (Q14498 150-331): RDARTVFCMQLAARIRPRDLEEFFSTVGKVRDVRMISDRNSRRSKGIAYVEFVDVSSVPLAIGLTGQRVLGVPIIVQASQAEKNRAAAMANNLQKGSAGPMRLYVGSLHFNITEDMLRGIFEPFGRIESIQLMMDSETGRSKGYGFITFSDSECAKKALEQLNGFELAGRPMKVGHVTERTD
T1 sequence (Q16531 with tags, fused parts or gaps DEL396-708 partner): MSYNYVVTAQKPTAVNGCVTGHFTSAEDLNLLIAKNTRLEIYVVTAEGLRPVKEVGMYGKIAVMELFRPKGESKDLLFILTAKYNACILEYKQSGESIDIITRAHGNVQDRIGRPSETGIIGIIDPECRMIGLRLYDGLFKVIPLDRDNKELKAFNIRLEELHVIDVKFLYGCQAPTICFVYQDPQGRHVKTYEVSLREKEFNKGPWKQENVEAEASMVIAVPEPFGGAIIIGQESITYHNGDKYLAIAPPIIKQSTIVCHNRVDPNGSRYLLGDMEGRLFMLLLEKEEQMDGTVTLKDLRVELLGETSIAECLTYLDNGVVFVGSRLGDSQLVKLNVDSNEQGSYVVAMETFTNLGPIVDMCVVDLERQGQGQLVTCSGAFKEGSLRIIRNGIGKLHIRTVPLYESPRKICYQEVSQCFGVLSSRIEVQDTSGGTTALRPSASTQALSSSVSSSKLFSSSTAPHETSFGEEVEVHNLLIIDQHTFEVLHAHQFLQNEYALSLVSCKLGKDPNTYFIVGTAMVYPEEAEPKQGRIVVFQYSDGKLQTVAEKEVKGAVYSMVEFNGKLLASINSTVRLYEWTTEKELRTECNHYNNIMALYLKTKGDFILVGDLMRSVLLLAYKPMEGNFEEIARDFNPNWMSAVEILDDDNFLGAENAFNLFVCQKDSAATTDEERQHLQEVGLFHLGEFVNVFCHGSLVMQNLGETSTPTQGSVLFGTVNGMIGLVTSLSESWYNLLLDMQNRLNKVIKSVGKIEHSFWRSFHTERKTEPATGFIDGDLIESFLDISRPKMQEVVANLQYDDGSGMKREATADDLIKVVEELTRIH

SMILES | pIC50 [1] | pEC50 [2]
CC(C)(C)OC(=O)N1CC(F)(Cn2cc(S(=O)(=O)Nc3ccc(Cl)c4c(C#N)c[nH]c34)cn2)C1 [Compound 254, tert-butyl 3-[[4-[(4-chloro-3-cyano-1H-indol-7-yl)sulfamoyl]pyrazol-1-yl]methyl]-3-fluoro-azetidine-1-carboxylate] | > 6.60 | 6.00 to 6.60
N#Cc1c[nH]c2c(NS(=O)(=O)c3cnn(CC4(F)CNC4)c3)ccc(Cl)c12 [Compound 256, N-(4-chloro-3-cyano-1H-indol-7-yl)-1-[(3-fluoroazetidin-3-yl)methyl]pyrazol-4-sulfonamide] | > 6.60 | < 6.00
Cc1ccc(NS(=O)(=O)c2cnn(CCO)c2)c2[nH]cc(C#N)c12 [Compound 25, N-(3-cyano-4-methyl-1H-indol-7-yl)-1-(2-hydroxyethyl)-1H-pyrazole-4-sulfonamide] | > 6.60 | 6.00 to 6.60
CC(C)n1cc(S(=O)(=O)Nc2cccc3c(Cl)c[nH]c23)cn1 [Compound 39, N-(3-chloro-1H-indol-7-yl)-1-isopropyl-pyrazole-4-sulfonamide] | > 6.60 | 6.00 to 6.60
Cn1ncc(S(=O)(=O)Nc2ccc(Cl)c3c(C#N)c[nH]c23)c1C(F)F [Compound 150, N-(4-chloro-3-cyano-1H-indol-7-yl)-5-(difluoromethyl)-1-methyl-pyrazole-4-sulfonamide] | > 6.60 | 6.00 to 6.60
CC1(Cn2cc(S(=O)(=O)Nc3cccc4c(Cl)c[nH]c34)cn2)CS(=O)(=O)C1 [Compound 45, N-(3-chloro-1H-indol-7-yl)-1-[(3-methyl-1,1-dioxo-thietan-3-yl)methyl]pyrazole-4-sulfonamide] | > 6.60 | 6.00 to 6.60
Cc1ccc(NS(=O)(=O)c2cn[nH]c2)c2[nH]cc(C#N)c12 [Compound 62, N-(3-cyano-4-methyl-1H-indol-7-yl)-1H-pyrazole-4-sulfonamide] | > 6.60 | 6.00 to 6.60
CC(C)(CO)n1cc(S(=O)(=O)Nc2cccc3c(C#N)c[nH]c23)c(Cl)n1 [Compound 253, 3-chloro-N-(3-cyano-1H-indol-7-yl)-1-(2-hydroxy-1,1-dimethyl-ethyl)pyrazole-4-sulfonamide] | > 6.60 | < 6.00
N#CCC1(n2cc(S(=O)(=O)Nc3ccc(Cl)c4c(Cl)c[nH]c34)cn2)COC1 [Compound 160, 1-[3-(cyanomethyl)oxetan-3-yl]-N-(3,4-dichloro-1H-indol-7-yl)pyrazole-4-sulfonamide] | > 6.60 | > 6.60
Cn1ncc(S(=O)(=O)Nc2ccc(Cl)c3c(C#N)n[nH]c23)c1N [Compound 307, 5-amino-N-(4-chloro-3-cyano-1H-indazol-7-yl)-1-methyl-pyrazole-4-sulfonamide] | > 6.60 | < 6.00
C[C@H](C(N)=O)n1cc(S(=O)(=O)Nc2ccc(Cl)c3c(C#N)c[nH]c23)cn1 [Compound 213, (2R)-2-[4-[(4-chloro-3-cyano-1H-indol-7-yl)sulfamoyl]pyrazol-1-yl]propanamide] | > 6.60 | 6.00 to 6.60
Cc1ccc(NS(=O)(=O)c2cnn(CC(F)F)c2)c2[nH]cc(Cl)c12 [Compound 98, N-(3-chloro-4-methyl-1H-indol-7-yl)-1-(2,2-difluoroethyl)pyrazole-4-sulfonamide] | > 6.60 | > 6.60
C[C@H]([C@@H](C)O)n1cc(S(=O)(=O)Nc2ccc(F)c3c(C#N)c[nH]c23)cn1 [Compound 288, N-(3-cyano-4-fluoro-1H-indol-7-yl)-1-[(1R,2R)-2-hydroxy-1-methyl-propyl]pyrazole-4-sulfonamide] | > 6.60 | 6.00 to 6.60
CS(=O)(=O)CCn1cc(S(=O)(=O)Nc2cccc3c(Cl)c[nH]c23)cn1 [Compound 9, N-(3-chloro-1H-indol-7-yl)-1-(2-methylsulfonylethyl)pyrazole-4-sulfonamide] | > 6.60 | 6.00 to 6.60
CC(CO)n1cc(S(=O)(=O)Nc2ccc(Cl)c3c(Cl)c[nH]c23)cn1 (stereo not drawn) [Compound 172, N-(3,4-dichloro-1H-indol-7-yl)-1-(2-hydroxy-1-methyl-ethyl)pyrazole-4-sulfonamide] | > 6.60 | 6.00 to 6.60
N#Cc1c[nH]c2c(NS(=O)(=O)c3cnn(CC(F)F)c3)ccc(F)c12 [Compound 92, N-(3-cyano-4-fluoro-1H-indol-7-yl)-1-(2,2-difluoroethyl)pyrazole-4-sulfonamide] | > 6.60 | 6.00 to 6.60
Cc1ccc(NS(=O)(=O)c2cnn(CC(C)(C)O)c2N)c2[nH]cc(C#N)c12 [Compound 283, 5-amino-N-(3-cyano-4-methyl-1H-indol-7-yl)-1-(2-hydroxy-2-methyl-propyl)pyrazole-4-sulfonamide] | > 6.60 | 6.00 to 6.60
Cn1cc(S(=O)(=O)Nc2cccc3c(C#N)c[nH]c23)cn1 [Compound 46, N-(3-cyano-1H-indol-7-yl)-1-methyl-pyrazole-4-sulfonamide] | > 6.60 | 6.00 to 6.60
Cc1ccc(NS(=O)(=O)c2cnn([C@H](C)CO)c2N)c2[nH]cc(C#N)c12 [Compound 303, 5-amino-N-(3-cyano-4-methyl-1H-indol-7-yl)-1-[(1R)-2-hydroxy-1-methyl-ethyl]pyrazole-4-sulfonamide] | > 6.60 | > 6.60
COCCOCCOCCn1cc(S(=O)(=O)Nc2cccc3c(Cl)c[nH]c23)cn1 [Compound 24, N-(3-chloro-1H-indol-7-yl)-1-[2-[2-(2-methoxyethoxy)ethoxy)ethyl]pyrazole-4-sulfonamide] | 6.00 to 6.60 | < 6.00
O=S(=O)(Nc1cccc2c(Cl)c[nH]c12)c1cnn(-c2ccccc2)c1 [Compound 37, N-(3-chloro-1H-indol-7-yl)-1-phenyl-pyrazole-4-sulfonamide] | > 6.60 | < 6.00
Cc1ccc(NS(=O)(=O)c2cnn(C3CCCC3)c2)c2[nH]cc(C#N)c12 [Compound 88, N-(3-cyano-4-methyl-1H-indol-7-yl)-1-cyclopentyl-pyrazole-4-sulfonamide] | > 6.60 | 6.00 to 6.60
Cc1ccc(NS(=O)(=O)c2cnn(C(C)CCO)c2)c2[nH]cc(C#N)c12 (stereo not drawn) [Compound 236, N-(3-cyano-4-methyl-1H-indol-7-yl)-1-(3-hydroxy-1-methyl-propyl)pyrazole-4-sulfonamide] | > 6.60 | > 6.60
N#Cc1c[nH]c2c(NS(=O)(=O)c3cnn(CF)c3)ccc(Cl)c12 [Compound 124, N-(4-chloro-3-cyano-1H-indol-7-yl)-1-(fluoromethyl)pyrazole-4-sulfonamide] | > 6.60 | > 6.60
Cc1ccc(NS(=O)(=O)c2cnn(C3(CC#N)COC3)c2)c2[nH]cc(C#N)c12 [Compound 157, N-(3-cyano-4-methyl-1H-indol-7-yl)-1-[3-(cyanomethyl)oxetan-3-yl]pyrazole-4-sulfonamide] | > 6.60 | 6.00 to 6.60
C[C@H](CF)n1cc(S(=O)(=O)Nc2ccc(F)c3c(C#N)c[nH]c23)cn1 [Compound 225, N-(3-cyano-4-fluoro-1H-indol-7-yl)-1-[(1R)-2-fluoro-1-methyl-ethyl]pyrazole-4-sulfonamide] | > 6.60 | 6.00 to 6.60
CC(C)(C)n1cc(S(=O)(=O)Nc2cccc3c(Cl)c[nH]c23)cn1 [Compound 95, 1-tert-butyl-N-(3-chloro-1H-indol-7-yl)pyrazole-4-sulfonamide] | > 6.60 | 6.00 to 6.60
